Source: US4540700A, “Treatment of diabetic complications with certain spiro-imidazolidine-diones” (Alcon Laboratories, Inc., priority 1984, dated 1985)
Values joined by “and” are separate entries in the source; they are usually repeats but may differ in a detail not shown here. Equal entries are not always repeated.

Tested on: cataract formation in galactocemic rats
Assay: in vivo dose response by intubation (per oral) in galactocemic rats, cataract (vacuole) formation
Design: species or system Charles River CD (Sprague-Dawley derived) male rats
Protocol: B. In vivo dose response studies were conducted to test the in vivo activity of the following compounds by intubation (per oral) in galactocemic rats on a 30% galactose diet previously described:
Stock suspensions of the test compounds and all dilutions of the compound were formulated with 0.03% by weight Tween 80.
Healthy, Charles River CD (outbred albino, Sprague-Dawley derived) male rats, aged 20-30 days, without observable ocular defects and ranging in weight from 35-45 grams, were acclimated to experimental conditions (in quarantine) for two days prior to beginning the study.
Rats were individually assigned to one of twenty-three groups according to a random number schedule. Two rats, belonging to the same drug-diet treatment group, were housed per cage. Treatment and control groups consisted of six (6) rats each with no replacement in the event of death, and were designated as follows:
Lenses of all eyes were examined with a hand-held ophthalmoscope in the early stages of cataract development and a penlight for the stages, snowflake-like, snowflake, and nuclear cataract. Lens grading occurred every day for the first ten study days, and then every other day until study Day 14.
The relative potency determination was made at 7 drug levels over half log dose intervals. The response (percent cataracts formed and/or the time to cataract formation) was plotted against mg/kg and/or moles/kg.
The study was directed to the suppression and/or elimination of the initial stages of cataract development characterized by vacuoles or snowflake-likeopacities only. It was assumed therefore that suppression and/or elimination of vacuoles or lens opacification by the test drugs affects the transport, absorption and/or metabolism of galactose in such a manner as to prevent subsequent osmotic disturbances normally leading to tissue degeneration and advanced cataract. Advanced cataract defined as stages 2-4 of the Sipple classification was assumed to be of secondary importance to the etiology of cataract inhibition.
In the event where cataract stage other than vacuole formed, such as snowflake-like opacities, this cataract was counted similarly as vacuole in percent cataract formation.
This study yielded this expected effect in the control groups.
All animals were fed Purina Laboratory Chow and water, ad libitum, for the two day acclimation period. All drugs were dosed orally by intubation using an animal feeding needle (Popper and Sons), 18 or 20 gauge, attached to a 1 or 3 ml syringe. Once the dosing time schedule was established, the schedule was followed throughout the study to compensate for any diurnal variation.
The animals were kept on a twelve hour day/night cycle. The temperature and humidity were determined each day at the scheduled dosing time of 1:00 p.m.
The animals were weighed every other day and adjustments to dosage amounts to compensate for weight gain were made each day prior to the dose time. All food was routinely withheld from all animal groups for four hours (9:00 a.m.) prior to the drug dose and restored two hours (3:00 p.m.) post-dose. Otherwise sufficient amounts of chow or diet mixture were maintained in the food hopper to allow the animals to eat ad libitum. There were two days of drug dosage with the animals remaining on Purina Laboratory Chow (Days 1 and 2). The 30% galactose diet mixture was introduced to the animals two hours post-dose on Day 3 which constituted Day 1 of the study.
All eyes were examined with a hand-held ophthalmoscope and/or penlight at the times designated in the Experimental Design section.
It has been found in previous studies that dilation of the eye with a mydriactic (i.e. Mydriacyl) is not necessary for accurate grading, due to the semi-transparent nature of the rat iris. In the early stages (i.e., grades -, ±, and +) the lens was observed by reflecting the ophthalmoscope beam off the retina back through the lens and iris. Using this technique, vacuoles appear as dark, almost opaque patches. […]

O=C1NC(=O)C2(CCOc3ccc(F)cc32)N1 (racemic) [Sarges Racemic, dl-spiro-(6-fluorochroman-4,4'-imidazolidine)-2',5'-dione, reference compound]
Percent of Rat Eyes With at Least Vacuoles Formed (0.126 mg/kg p.o., Day 0): 0% | Percent of Rat Eyes With at Least Vacuoles Formed (0.126 mg/kg p.o., Day 1): 0% | Percent of Rat Eyes With at Least Vacuoles Formed (0.126 mg/kg p.o., Day 2): 0% | Percent of Rat Eyes With at Least Vacuoles Formed (0.126 mg/kg p.o., Day 3): 0% | Percent of Rat Eyes With at Least Vacuoles Formed (0.126 mg/kg p.o., Day 4): 0% | Percent of Rat Eyes With at Least Vacuoles Formed (0.126 mg/kg p.o., Day 5): 0% | Percent of Rat Eyes With at Least Vacuoles Formed (0.126 mg/kg p.o., Day 6): 33% | Percent of Rat Eyes With at Least Vacuoles Formed (0.126 mg/kg p.o., Day 7): 33% | Percent of Rat Eyes With at Least Vacuoles Formed (0.126 mg/kg p.o., Day 8): 50% | Percent of Rat Eyes With at Least Vacuoles Formed (0.126 mg/kg p.o., Day 9): 58% | Percent of Rat Eyes With at Least Vacuoles Formed (0.126 mg/kg p.o., Day 10): 83% | Percent of Rat Eyes With at Least Vacuoles Formed (0.126 mg/kg p.o., Day 12): 83% | Percent of Rat Eyes With at Least Vacuoles Formed (0.126 mg/kg p.o., Day 14): 100% | Percent of Rat Eyes With at Least Vacuoles Formed (0.4 mg/kg p.o., Day 0): 0% | Percent of Rat Eyes With at Least Vacuoles Formed (0.4 mg/kg p.o., Day 1): 0% | Percent of Rat Eyes With at Least Vacuoles Formed (0.4 mg/kg p.o., Day 2): 0% | Percent of Rat Eyes With at Least Vacuoles Formed (0.4 mg/kg p.o., Day 3): 0% | Percent of Rat Eyes With at Least Vacuoles Formed (0.4 mg/kg p.o., Day 4): 0% | Percent of Rat Eyes With at Least Vacuoles Formed (0.4 mg/kg p.o., Day 5): 0% | Percent of Rat Eyes With at Least Vacuoles Formed (0.4 mg/kg p.o., Day 6): 33% | Percent of Rat Eyes With at Least Vacuoles Formed (0.4 mg/kg p.o., Day 7): 33% | Percent of Rat Eyes With at Least Vacuoles Formed (0.4 mg/kg p.o., Day 8): 50% | Percent of Rat Eyes With at Least Vacuoles Formed (0.4 mg/kg p.o., Day 9): 58% | Percent of Rat Eyes With at Least Vacuoles Formed (0.4 mg/kg p.o., Day 10): 83% | Percent of Rat Eyes With at Least Vacuoles Formed (0.4 mg/kg p.o., Day 12): 83% | Percent of Rat Eyes With at Least Vacuoles Formed (0.4 mg/kg p.o., Day 14): 100% | Percent of Rat Eyes With at Least Vacuoles Formed (1.26 mg/kg p.o., Day 0): 0% | Percent of Rat Eyes With at Least Vacuoles Formed (1.26 mg/kg p.o., Day 1): 0% | Percent of Rat Eyes With at Least Vacuoles Formed (1.26 mg/kg p.o., Day 2): 0% | Percent of Rat Eyes With at Least Vacuoles Formed (1.26 mg/kg p.o., Day 3): 0% | Percent of Rat Eyes With at Least Vacuoles Formed (1.26 mg/kg p.o., Day 4): 0% | Percent of Rat Eyes With at Least Vacuoles Formed (1.26 mg/kg p.o., Day 5): 0% | Percent of Rat Eyes With at Least Vacuoles Formed (1.26 mg/kg p.o., Day 6): 0% | Percent of Rat Eyes With at Least Vacuoles Formed (1.26 mg/kg p.o., Day 7): 0% | Percent of Rat Eyes With at Least Vacuoles Formed (1.26 mg/kg p.o., Day 8): 8% | Percent of Rat Eyes With at Least Vacuoles Formed (1.26 mg/kg p.o., Day 9): 17% | Percent of Rat Eyes With at Least Vacuoles Formed (1.26 mg/kg p.o., Day 10): 83% | Percent of Rat Eyes With at Least Vacuoles Formed (1.26 mg/kg p.o., Day 12): 100% | Percent of Rat Eyes With at Least Vacuoles Formed (1.26 mg/kg p.o., Day 14): 100% | Percent of Rat Eyes With at Least Vacuoles Formed (4.0 mg/kg p.o., Day 0): 0% | Percent of Rat Eyes With at Least Vacuoles Formed (4.0 mg/kg p.o., Day 1): 0% | Percent of Rat Eyes With at Least Vacuoles Formed (4.0 mg/kg p.o., Day 2): 0% | Percent of Rat Eyes With at Least Vacuoles Formed (4.0 mg/kg p.o., Day 3): 0% | Percent of Rat Eyes With at Least Vacuoles Formed (4.0 mg/kg p.o., Day 4): 0% | Percent of Rat Eyes With at Least Vacuoles Formed (4.0 mg/kg p.o., Day 5): 0% | Percent of Rat Eyes With at Least Vacuoles Formed (4.0 mg/kg p.o., Day 6): 0% | Percent of Rat Eyes With at Least Vacuoles Formed (4.0 mg/kg p.o., Day 7): 0% | Percent of Rat Eyes With at Least Vacuoles Formed (4.0 mg/kg p.o., Day 8): 0% | Percent of Rat Eyes With at Least Vacuoles Formed (4.0 mg/kg p.o., Day 9): 0% | Percent of Rat Eyes With at Least Vacuoles Formed (4.0 mg/kg p.o., Day 10): 0% | Percent of Rat Eyes With at Least Vacuoles Formed (4.0 mg/kg p.o., Day 12): 17% and 16.7% | Percent of Rat Eyes With at Least Vacuoles Formed (4.0 mg/kg p.o., Day 14): 50% | Percent of Rat Eyes With at Least Vacuoles Formed (12.6 mg/kg p.o., Day 0): 0% | Percent of Rat Eyes With at Least Vacuoles Formed (12.6 mg/kg p.o., Day 1): 0% | Percent of Rat Eyes With at Least Vacuoles Formed (12.6 mg/kg p.o., Day 2): 0% | Percent of Rat Eyes With at Least Vacuoles Formed (12.6 mg/kg p.o., Day 3): 0% | Percent of Rat Eyes With at Least Vacuoles Formed (12.6 mg/kg p.o., Day 4): 0% | Percent of Rat Eyes With at Least Vacuoles Formed (12.6 mg/kg p.o., Day 5): 0% | Percent of Rat Eyes With at Least Vacuoles Formed (12.6 mg/kg p.o., Day 6): 0% | Percent of Rat Eyes With at Least Vacuoles Formed (12.6 mg/kg p.o., Day 7): 0% | Percent of Rat Eyes With at Least Vacuoles Formed (12.6 mg/kg p.o., Day 8): 0% | Percent of Rat Eyes With at Least Vacuoles Formed (12.6 mg/kg p.o., Day 9): 0% | Percent of Rat Eyes With at Least Vacuoles Formed (12.6 mg/kg p.o., Day 10): 0% | Percent of Rat Eyes With at Least Vacuoles Formed (12.6 mg/kg p.o., Day 12): 0% | Percent of Rat Eyes With at Least Vacuoles Formed (12.6 mg/kg p.o., Day 14): 8% and 0.3% | Percent of Rat Eyes With at Least Vacuoles Formed (40 mg/kg p.o., Day 0): 0% | Percent of Rat Eyes With at Least Vacuoles Formed (40 mg/kg p.o., Day 1): 0% | Percent of Rat Eyes With at Least Vacuoles Formed (40 mg/kg p.o., Day 2): 0% | Percent of Rat Eyes With at Least Vacuoles Formed (40 mg/kg p.o., Day 3): 0% | Percent of Rat Eyes With at Least Vacuoles Formed (40 mg/kg p.o., Day 4): 0% | Percent of Rat Eyes With at Least Vacuoles Formed (40 mg/kg p.o., Day 5): 0% | Percent of Rat Eyes With at Least Vacuoles Formed (40 mg/kg p.o., Day 6): 0% | Percent of Rat Eyes With at Least Vacuoles Formed (40 mg/kg p.o., Day 7): 0% | Percent of Rat Eyes With at Least Vacuoles Formed (40 mg/kg p.o., Day 8): 0% | Percent of Rat Eyes With at Least Vacuoles Formed (40 mg/kg p.o., Day 9): 0% | Percent of Rat Eyes With at Least Vacuoles Formed (40 mg/kg p.o., Day 10): 0% | Percent of Rat Eyes With at Least Vacuoles Formed (40 mg/kg p.o., Day 12): 0% | Percent of Rat Eyes With at Least Vacuoles Formed (40 mg/kg p.o., Day 14): 0%
